# Measurements from PMC12430544 (Molecules, 2025).
# Where “and” joins values, the source holds several entries; their conditions need not be identical. Equal values may be shown once.
# Experiments:
# [1] = Metal chelation by UV–vis spectrometry (Fe); format: physicochemical
# Protocol: (§1) Given the 8-hydroxy(amino)quinoline moiety with the properties to bind metal ions, the abilities of all the compounds in binding metal ions (Cu^II, Fe^III, Zn^II) were studied by UV–vis spectrometry. At first three compounds were chose to test the binding abilities. Upon the addition of CuCl2 or ZnSO4 the maximum absorption suffered a bathochromic shift, pointing out the formation of complex compound–Cu^II. […] […].
# (§2) Metal-chelating properties were evaluated by UV–vis spectrometry. To screen the ability of chelating metal ions, the same concentrations of compound and metal ion were mixed in CH3OH/H2O (v/v = 9/1), and the UV–vis spectrum was tested; compared to the compound, the maximum absorption that suffered a bathochromic shift would point out the formation of a complex compound–metal ion. The stoichiometry of the complex compound–metal ion was determined by Job’s method. The affinity of compounds 15–17 as ligands (excepted 15f, 16d, 16g, 16k) for Cu^II or Zn^II were estimated in the CH3OH/H2O solution (v/v = 9/1). Since all the ligands studied L from ML2 species and in accordance with the Beer–Lambert law, complexation reactions can be summarized as 2L+M⇔ML2 with K = 1−α/4C^2α^3 , and α = A/Amax; A was the data of absorption tested when the compound–metal ion = 2/1 under the maximum absorption wavelength of the complex, Amax was the absorption when the compound completely formed a complex with the metal ion; the data can be obtained as an approximation when the metal ion is in excess, and the absorption changes little as the concentration of metal ion still increases.
# [2] = Metal chelation by UV–vis spectrometry, Job's method and affinity estimate (Cu); format: physicochemical; settings: for LogK Cu (affinity of ligand for Cu^II, ML2): 2L+M⇔ML2; for Mole fraction of compound at the intersection of the Job plot (Cu^II): Job's method, CuSO4, sum of concentrations 20 μm; for Maximum absorption of compound–Cu^II complex: bathochromic shift from 246 nm of the free compound
# Description: as §1
# (§3) To determine the stoichiometry of the complex compound–Cu^II, the technique of continuous variations (also called Job’s method) was used by preparing solutions of compounds 15a, 17b and CuSO4 so that the sum of concentrations of both species was constant at […] in all samples, but the proportions of both components varied between 0 and 100%. The UV spectra were recorded and the absorbance change at the maximum absorption wavelength of the compound-Cu^II complex, meaning the 15a-Cu^II complex at 264 nm and the 17b-Cu^II at 265 nm, respectively. The absorbance change was plotted versus the mole fraction of the compound, giving two straight lines whose equations were calculated. […] […].
# (§4) Since all the ligands studied L from ML2 species and in accordance with the Beer–Lambert law, complexation reactions can be summarized as 2L+M⇔ML2 with K = 1−α/4C^2α^3 , and α can be calculated from the data of the absorption.
# as §2
# [3] = target: T1, acetylcholinesterase (AChE, from an electric eel) (Electrophorus electricus, UniProt O42275); assay: biochemical; settings: for IC50: electric eel AChE, Ellman's method, pH 7.4, means ± SEM of at least three experiments, read-out: IC50 AChE Inhibition; for Selectivity Index = IC50 (AChE)/IC50 (BuChE): ratio of eeAChE and equine BuChE IC50
# T1 construct: purchased Sigma-Aldrich
# T1 sequence (O42275 24-633): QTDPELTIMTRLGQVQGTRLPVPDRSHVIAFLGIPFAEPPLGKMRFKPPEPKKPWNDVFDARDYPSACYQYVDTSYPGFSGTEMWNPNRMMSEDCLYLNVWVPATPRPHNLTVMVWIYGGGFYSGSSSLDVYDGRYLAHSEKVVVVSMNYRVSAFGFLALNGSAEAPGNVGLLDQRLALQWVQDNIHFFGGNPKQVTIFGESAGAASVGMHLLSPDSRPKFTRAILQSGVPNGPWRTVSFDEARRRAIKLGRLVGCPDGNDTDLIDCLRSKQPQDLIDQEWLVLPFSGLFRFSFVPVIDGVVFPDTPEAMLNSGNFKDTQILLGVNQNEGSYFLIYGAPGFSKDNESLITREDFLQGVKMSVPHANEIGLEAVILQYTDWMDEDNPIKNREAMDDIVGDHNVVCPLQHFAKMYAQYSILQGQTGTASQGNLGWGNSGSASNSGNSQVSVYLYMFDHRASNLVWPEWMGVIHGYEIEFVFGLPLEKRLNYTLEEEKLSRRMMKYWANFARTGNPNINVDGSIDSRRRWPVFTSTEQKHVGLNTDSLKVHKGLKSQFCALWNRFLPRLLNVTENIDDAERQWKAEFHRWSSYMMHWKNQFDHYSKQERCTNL
# Protocol: (§5) Cholinesterase (ChE) inhibitory activity was evaluated using a modified Ellman’s spectrophotometric method. Acetylcholinesterase (AChE, from electric eel), butyrylcholinesterase (BuChE, from equine serum), 5,5′-dithiobis-(2-nitrobenzoic acid) (Ellman’s reagent, DTNB), S-butyrylthiocholine iodide (BTCI), acetylthiocholine iodide (ATCI), and tarcine hydrochloride were purchased from Sigma-Aldrich. Tarcine hydrochloride was used as a reference standard. All the assays were carried out in 0.1 M KH2PO4/K2HPO4 buffer (pH = 7.4). Stock solutions of tested compounds (10 mM) were prepared in DMSO (below 0.5%, v/v) and diluted in phosphate buffer. The assay was performed in 96-well plate by adding 25 μL of 1 mM acetylthiocholine iodide or butyrylthiocholine iodide used as substrate in the assay, 125 μL of 1 mM 5,5′-dithiobis-(2-nitrobenzoic acid) (DTNB), 25 μL of 0.1 M phosphate buffer (pH = 7.4), 25 μL of testing substance in various concentrations, and 50 μL of 0.2 Units/mL AChE from an electric eel or BuChE from equine serum, respectively. At least five concentrations of the test compounds were assayed. […] The enzyme activity and the percentage inhibition were determined.
# [4] = target: T2, butyrylcholinesterase (BuChE, from horse serum) (Equus caballus, UniProt P81908); assay: biochemical; settings: equine serum BuChE, Ellman's method, pH 7.4; means ± SEM of at least three experiments; read-out: IC50 BuChE Inhibition
# T2 construct: purchased Sigma-Aldrich
# T2 sequence (P81908 whole entry): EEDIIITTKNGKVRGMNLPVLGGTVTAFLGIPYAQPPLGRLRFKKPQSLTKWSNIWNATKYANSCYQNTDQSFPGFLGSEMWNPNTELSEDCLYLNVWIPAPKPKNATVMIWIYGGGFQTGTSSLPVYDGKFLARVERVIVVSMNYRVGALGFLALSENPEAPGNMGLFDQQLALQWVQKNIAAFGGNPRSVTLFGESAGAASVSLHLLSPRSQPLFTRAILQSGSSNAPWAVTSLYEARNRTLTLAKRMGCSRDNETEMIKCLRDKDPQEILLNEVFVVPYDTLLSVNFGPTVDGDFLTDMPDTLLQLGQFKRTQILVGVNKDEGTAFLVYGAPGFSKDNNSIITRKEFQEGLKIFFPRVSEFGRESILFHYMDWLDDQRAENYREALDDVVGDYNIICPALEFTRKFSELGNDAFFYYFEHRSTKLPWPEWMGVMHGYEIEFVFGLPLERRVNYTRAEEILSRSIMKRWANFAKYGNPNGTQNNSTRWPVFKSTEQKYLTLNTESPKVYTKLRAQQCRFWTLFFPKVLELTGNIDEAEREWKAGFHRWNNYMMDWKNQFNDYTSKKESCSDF
# Protocol: as §5
# [5] = Metal chelation by UV–vis spectrometry, stoichiometry and affinity estimate (Zn); format: physicochemical; settings: for LogK Zn (affinity of ligand for Zn^II, ML2): 2L+M⇔ML2; for Maximum absorption of compound–Zn^II complex: bathochromic shift from 246 nm of the free compound
# Description: as §1, §3, §4, §2
# [6] = target: T3, Aβ1–42 (Homo sapiens, UniProt P05067); assay: Inhibition of self-induced Aβ1–42 aggregation (ThT fluorescence); format: biochemical; settings: 20 μM compound, thioflavin-T fluorescence, mean ± SD of at least three independent experiments; read-out: Aβ Aggregation Inhibition (%), self-induced Aβ1–42
# T3 construct: aggregation of Aβ1–42 synthetic peptide into fibrils
# T3 sequence (P05067 672-713): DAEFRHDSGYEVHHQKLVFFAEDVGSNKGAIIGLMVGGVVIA
# Protocol: Self-induced Aβ1–42 aggregation of all the compounds we obtained was also evaluated. […] ThT is a histochemical dye that is known to bind to the peptide β-sheet conformation, which is the predominant secondary structure of amyloid-beta fibrils. […] The inhibition studies were carried out upon incubating Aβ1–42 with and without the compounds.
# Aβ1–42 was dissolved in 100% 1,1,1,3,3,3-[…] (HFIP) to a concentration of 1 mg/mL, sonicated in a water bath overnight, aliquoted into microcentrifuge tubes, dried under vacuum, and stored at −20 °C. Immediately prior to use, the HFIP-treated Aβ1–42 was dissolved in dimethylsulfoxide (DMSO) as the stored solution. […] Amounts of 5 μL of compound (200 μM) and 5 μL of 200 μM Aβ1–42 were added into 40 μL of phosphate-buffered saline (PBS at pH 7.4). After incubation at room temperature on a thermostatic shaker for 72 h, 100 μL of 5 μM ThT solution (in PBS at pH 7.4) was added to the reaction solution. […] The Aβ1–42 aggregation inhibition percentage was calculated using the following formula: inhibition percentage = (F1 − F2)/(F1 − F0) × 100%.
# [7] = set-up: method as in PMID 17382398; settings: data from the literature ref 50; cited from earlier work
# [8] = set-up: method as in PMID 17382398; settings: data from the literature ref 50; cited from earlier work; remark: listed apart in the source
# [9] = target: T4, electric eel AChE (eeAChE) (Electrophorus electricus, UniProt O42275); assay: Kinetic study of AChE inhibition (Lineweaver–Burk plots); format: biochemical; settings: 16e at 10, 50 and 100 nM, Lineweaver–Burk plot
# T4 construct: purchased Sigma-Aldrich
# T4 sequence (O42275 24-633): as the sequence (O42275 24-633) above
# Protocol: To elucidate the mechanism of AChE’s inhibition by the synthesized hybrids, a detailed enzyme kinetic study was conducted using electric eel AChE (eeAChE).
# The slope (Km/Vmax) reflects the apparent enzyme–substrate affinity, whereas the y-intercept (1/Vmax) corresponds to the maximum reaction velocity.
# The assay medium contained 25 μL of PBS (pH 7.4), 50 μL of enzyme, 25 μL of compound solution, and 125 μL of 1.0 mM DTNB; the reaction was started by addition of 25 μL of different concentrations of ATC.
# The slope (Km/Vmax) reflects the enzyme’s affinity for the substrate in the presence of the inhibitor, while the y-intercept (1/Vmax) indicates the maximum velocity of the reaction.
structure (smiles),measurement,setting,value
"Cc1ccc2c(CN3CCN(CC(=O)Nc4c5c(nc6ccccc46)CCCC5)CC3)ccc(O)c2n1 [Compound 17b, 2-(4-((8-Hydroxy-2-methylquinolin-5-yl)methyl)piperazin-1-yl)-N-(1,2,3,4-tetrahydroacridin-9-yl)acetamide]",Complex formation with Fe^III (UV–vis shift),[1],no reliable shift
same,"LogK Cu (affinity of ligand for Cu^II, ML2)","[2]; CH3OH/H2O (v/v = 9/1), UV–vis",9.42
same,Mole fraction of compound at the intersection of the Job plot (Cu^II),[2],around 0.7
same,Maximum absorption of compound–Cu^II complex,[2]; UV–vis,265 nm
same,IC50,[3],2530 ± 200 nM
same,Selectivity Index = IC50 (AChE)/IC50 (BuChE),[3],0.58
same,IC50,[4],4390 ± 270 nM
same,"LogK Zn (affinity of ligand for Zn^II, ML2)",[5]; CH3OH/H2O (v/v = 9/1),9.71
same,Maximum absorption of compound–Zn^II complex,[5],262 nm
same,inhibition at 20 µM,[6],23.3 ± 3.2%
"O=C(CN1CCN(Cc2ccc3cccc(O)c3n2)CC1)Nc1c2c(nc3ccccc13)CCCC2 [Compound 15a, 2-(4-((8-Hydroxyquinolin-2-yl)methyl)piperazin-1-yl)-N-(1,2,3,4-tetrahydroacridin-9-yl)acetamide]",Complex formation with Fe^III (UV–vis shift),[1],no reliable shift
same,"LogK Cu (affinity of ligand for Cu^II, ML2)","[2]; CH3OH/H2O (v/v = 9/1), UV–vis",10.14
same,Mole fraction of compound at the intersection of the Job plot (Cu^II),[2],around 0.7
same,Maximum absorption of compound–Cu^II complex,[2]; UV–vis,264 nm
same,IC50,[3],2020 ± 120 nM
same,Selectivity Index = IC50 (AChE)/IC50 (BuChE),[3],0.26
same,IC50,[4],7740 ± 890 nM
same,"LogK Zn (affinity of ligand for Zn^II, ML2)",[5]; CH3OH/H2O (v/v = 9/1),9.91
same,Maximum absorption of compound–Zn^II complex,[5],266 nm and 262 nm
same,inhibition at 20 µM,[6],46.8 ± 4.1%
"Oc1c(I)cc(Cl)c2cccnc12 [clioquinol, reference compound]","LogK Cu (affinity of ligand for Cu^II, ML2)","[2]; CH3OH/H2O (v/v = 9/1), UV–vis",9.86
same,"LogK Zn, value in parentheses",[7],8.84
same,"LogK Cu, value in parentheses",[8],10.08
same,"LogK Zn (affinity of ligand for Zn^II, ML2)",[5]; CH3OH/H2O (v/v = 9/1),8.38
"Oc1cccc2ccc(CN3CCN(CCCNc4c5c(nc6ccccc46)CCCC5)CC3)nc12 [Compound 16e, 2-((4-(3-((1,2,3,4-Tetrahydroacridin-9-yl)amino)propyl)piperazin-1-yl)methyl)quinolin-8-ol]","LogK Cu (affinity of ligand for Cu^II, ML2)","[2]; CH3OH/H2O (v/v = 9/1), UV–vis",9.46
same,IC50,[3],100 ± 3.2 nM
same,Selectivity Index = IC50 (AChE)/IC50 (BuChE),[3],2.33
same,IC50,[4],43 ± 5 nM
same,Type of AChE inhibition,[9],mixed-type inhibition
same,"LogK Zn (affinity of ligand for Zn^II, ML2)",[5]; CH3OH/H2O (v/v = 9/1),9.63
same,inhibition at 20 µM,[6],80.5 ± 4.4%
"Nc1cccc2ccc(CN3CCN(CCCNc4c5c(nc6ccccc46)CCCC5)CC3)nc12 [Compound 16g, N-(3-(4-((8-aminoquinolin-2-yl)methyl)piperazin-1-yl)propyl)-1,2,3,4-tetrahydroacridin-9-amine]",Complex formation with Fe^III (UV–vis shift),[1],no reliable shift
same,Complex formation with Cu^II (UV–vis shift / binding),"[2]; UV–vis, CH3OH/H2O (v/v = 9/1)",no reliable shift
same,IC50,[3],52 ± 1 nM
same,Selectivity Index = IC50 (AChE)/IC50 (BuChE),[3],2.89
same,IC50,[4],18 ± 3 nM
same,Complex formation with Zn^II (UV–vis shift / binding),[5]; CH3OH/H2O (v/v = 9/1),no reliable shift
same,inhibition at 20 µM,[6],94.6 ± 4.2%
